Experiments:
AT2 (h) = target: T1, AT2 (h) (Homo sapiens, UniProt P50052); test: CEREP binding assay; details: agonist radioligand, read-out: % Inhibition of Control Specific Binding
T1 construct: purchased Millipore (KinaseProfiler) kinase panel

ALK = target: T2, ALK (Homo sapiens, UniProt Q9UM73); test: Kinase panel (Millipore); assay type: biochemical; details: 1 µM, ATP at Km
T2 construct: purchased Millipore (KinaseProfiler) kinase panel

LIMK1 = LIMK1 (Homo sapiens, UniProt P53667); test: Kinase panel (Millipore); assay type: biochemical; details: 1 µM, ATP at Km
ASK1 = ASK1 (Homo sapiens, UniProt Q99683); test: Kinase panel (Millipore); assay type: biochemical; details: 1 µM, ATP at Km
LOK = target: T3, LOK (Homo sapiens, UniProt O94804); test: Kinase panel (Millipore); assay type: biochemical; details: 1 µM, ATP at Km
T3 construct: purchased Millipore (KinaseProfiler) kinase panel

BMX = target: T4, BMX (Homo sapiens, UniProt P51813); test: Kinase panel (Millipore); assay type: biochemical; details: 1 µM, ATP at Km
T4 construct: purchased Millipore (KinaseProfiler) kinase panel

FGFR2 = FGFR2 (Homo sapiens, UniProt P21802); test: Kinase panel (Millipore); assay type: biochemical; details: 1 µM, ATP at Km
FGR = FGR (Homo sapiens, UniProt P09769); test: Kinase panel (Millipore); assay type: biochemical; details: 1 µM, ATP at Km
FLT1 = target: T5, FLT1 (Homo sapiens, UniProt P17948); test: Kinase panel (Millipore); assay type: biochemical; details: 1 µM, ATP at Km
T5 construct: purchased Millipore (KinaseProfiler) kinase panel

MLCK = test: Kinase panel (Millipore); assay type: biochemical; details: 1 µM, ATP at Km
FYN = FYN (Homo sapiens, UniProt P06241); test: Kinase panel (Millipore); assay type: biochemical; details: 1 µM, ATP at Km
HCK = HCK (Homo sapiens, UniProt P08631); test: Kinase panel (Millipore); assay type: biochemical; details: 1 µM, ATP at Km
CK1(Y) = test: Kinase panel (Millipore); assay type: biochemical; details: 1 µM, ATP at Km
MST1 = MST1 (Homo sapiens, UniProt Q13043); test: Kinase panel (Millipore); assay type: biochemical; details: 1 µM, ATP at Km
HIPK2 = target: T6, HIPK2 (Homo sapiens, UniProt Q9H2X6); test: Kinase panel (Millipore); assay type: biochemical; details: 1 µM, ATP at Km
T6 construct: purchased Millipore (KinaseProfiler) kinase panel

MST2 = target: T7, MST2 (Homo sapiens, UniProt Q13188); test: Kinase panel (Millipore); assay type: biochemical; details: 1 µM, ATP at Km
T7 construct: purchased Millipore (KinaseProfiler) kinase panel

IKKBETA = target: T8, IKKBETA (Homo sapiens, UniProt O14920); test: Kinase panel (Millipore); assay type: biochemical; details: 1 µM, ATP at Km
T8 construct: purchased Millipore (KinaseProfiler) kinase panel

IRR = target: T9, IRR (Homo sapiens, UniProt P14616); test: Kinase panel (Millipore); assay type: biochemical; details: 1 µM, ATP at Km
T9 construct: purchased Millipore (KinaseProfiler) kinase panel
T9 sequence (P14616 27-1297): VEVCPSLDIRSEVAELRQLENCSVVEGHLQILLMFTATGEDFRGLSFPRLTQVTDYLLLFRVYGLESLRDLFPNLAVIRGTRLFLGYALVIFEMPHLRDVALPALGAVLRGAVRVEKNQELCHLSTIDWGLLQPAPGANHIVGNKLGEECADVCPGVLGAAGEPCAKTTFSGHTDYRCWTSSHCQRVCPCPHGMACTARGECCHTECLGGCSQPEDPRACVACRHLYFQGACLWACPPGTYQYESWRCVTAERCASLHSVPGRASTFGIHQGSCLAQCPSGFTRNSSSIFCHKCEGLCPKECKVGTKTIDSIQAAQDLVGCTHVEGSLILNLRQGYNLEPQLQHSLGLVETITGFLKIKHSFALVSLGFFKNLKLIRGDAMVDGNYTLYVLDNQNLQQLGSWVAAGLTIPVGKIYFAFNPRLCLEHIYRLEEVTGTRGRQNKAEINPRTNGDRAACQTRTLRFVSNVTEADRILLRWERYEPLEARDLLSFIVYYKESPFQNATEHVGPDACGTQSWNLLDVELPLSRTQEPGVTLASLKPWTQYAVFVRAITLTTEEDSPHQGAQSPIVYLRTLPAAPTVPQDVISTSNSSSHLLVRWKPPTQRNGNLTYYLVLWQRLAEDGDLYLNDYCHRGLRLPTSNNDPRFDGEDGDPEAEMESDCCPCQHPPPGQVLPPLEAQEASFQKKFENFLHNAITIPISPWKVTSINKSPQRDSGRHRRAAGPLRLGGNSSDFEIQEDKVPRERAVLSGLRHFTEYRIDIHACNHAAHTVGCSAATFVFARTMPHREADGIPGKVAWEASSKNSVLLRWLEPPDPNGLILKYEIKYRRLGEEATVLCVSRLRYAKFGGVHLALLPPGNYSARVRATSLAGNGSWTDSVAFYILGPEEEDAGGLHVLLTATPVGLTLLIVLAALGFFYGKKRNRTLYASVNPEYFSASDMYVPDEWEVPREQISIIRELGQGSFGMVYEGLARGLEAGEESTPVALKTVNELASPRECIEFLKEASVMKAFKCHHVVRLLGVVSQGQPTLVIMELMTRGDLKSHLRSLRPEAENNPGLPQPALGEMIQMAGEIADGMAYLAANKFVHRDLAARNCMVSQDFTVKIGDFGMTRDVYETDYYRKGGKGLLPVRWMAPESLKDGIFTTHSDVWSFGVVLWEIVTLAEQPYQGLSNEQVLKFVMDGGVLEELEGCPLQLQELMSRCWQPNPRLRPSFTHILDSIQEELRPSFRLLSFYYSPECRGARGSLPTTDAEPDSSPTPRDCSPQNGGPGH

IRAK1 = IRAK1 (Homo sapiens, UniProt P51617); test: Kinase panel (Millipore); assay type: biochemical; details: 1 µM, ATP at Km
P70S6K = target: T10, P70S6K (Homo sapiens, UniProt P23443); test: Kinase panel (Millipore); assay type: biochemical; details: 1 µM, ATP at Km
T10 construct: purchased Millipore (KinaseProfiler) kinase panel

PAK2 = target: T11, PAK2 (Homo sapiens, UniProt Q13177); test: Kinase panel (Millipore); assay type: biochemical; details: 1 µM, ATP at Km
T11 construct: purchased Millipore (KinaseProfiler) kinase panel

PAK4 = target: T12, PAK4 (Homo sapiens, UniProt O96013); test: Kinase panel (Millipore); assay type: biochemical; details: 1 µM, ATP at Km
T12 construct: purchased Millipore (KinaseProfiler) kinase panel
T12 sequence (O96013 whole entry): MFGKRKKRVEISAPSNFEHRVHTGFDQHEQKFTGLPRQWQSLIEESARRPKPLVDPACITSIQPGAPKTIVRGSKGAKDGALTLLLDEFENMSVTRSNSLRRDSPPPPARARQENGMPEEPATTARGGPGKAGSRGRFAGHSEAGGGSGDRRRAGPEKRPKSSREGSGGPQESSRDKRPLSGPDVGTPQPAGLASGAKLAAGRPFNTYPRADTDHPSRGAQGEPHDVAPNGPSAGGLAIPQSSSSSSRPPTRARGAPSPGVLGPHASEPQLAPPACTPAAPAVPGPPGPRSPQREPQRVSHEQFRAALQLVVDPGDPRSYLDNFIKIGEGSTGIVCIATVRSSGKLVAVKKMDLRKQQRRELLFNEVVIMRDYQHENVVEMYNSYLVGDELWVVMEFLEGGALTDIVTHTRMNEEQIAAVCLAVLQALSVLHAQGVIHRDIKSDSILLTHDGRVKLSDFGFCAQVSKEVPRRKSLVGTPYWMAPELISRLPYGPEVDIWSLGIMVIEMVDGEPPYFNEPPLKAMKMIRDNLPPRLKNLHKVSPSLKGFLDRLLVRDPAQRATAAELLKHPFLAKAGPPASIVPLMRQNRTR

PAK5 = PAK5 (Homo sapiens, UniProt Q9P286); test: Kinase panel (Millipore); assay type: biochemical; details: 1 µM, ATP at Km
Chain of PAK5 (Q9P286 whole entry): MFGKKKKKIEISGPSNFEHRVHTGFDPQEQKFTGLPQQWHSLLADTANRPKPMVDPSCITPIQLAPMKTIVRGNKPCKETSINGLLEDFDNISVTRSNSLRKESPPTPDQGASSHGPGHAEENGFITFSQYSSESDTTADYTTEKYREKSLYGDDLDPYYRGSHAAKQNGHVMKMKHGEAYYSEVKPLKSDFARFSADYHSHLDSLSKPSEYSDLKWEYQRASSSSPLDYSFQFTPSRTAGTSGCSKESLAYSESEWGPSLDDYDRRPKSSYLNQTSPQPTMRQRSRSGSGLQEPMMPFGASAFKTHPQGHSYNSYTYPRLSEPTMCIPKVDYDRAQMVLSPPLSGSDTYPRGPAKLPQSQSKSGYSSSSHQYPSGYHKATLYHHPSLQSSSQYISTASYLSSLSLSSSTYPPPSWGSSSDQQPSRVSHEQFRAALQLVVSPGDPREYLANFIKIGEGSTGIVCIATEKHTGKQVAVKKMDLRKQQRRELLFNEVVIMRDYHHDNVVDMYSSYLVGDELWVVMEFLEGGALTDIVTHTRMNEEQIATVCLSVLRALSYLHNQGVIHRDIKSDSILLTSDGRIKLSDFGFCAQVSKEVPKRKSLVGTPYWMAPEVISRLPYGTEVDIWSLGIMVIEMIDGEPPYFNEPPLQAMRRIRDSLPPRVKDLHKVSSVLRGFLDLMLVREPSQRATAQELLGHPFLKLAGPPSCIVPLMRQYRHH

FAK = FAK (Homo sapiens, UniProt Q05397); test: Kinase panel (Millipore); assay type: biochemical; details: 1 µM, ATP at Km
MER = target: T13, MER (Homo sapiens, UniProt Q12866); test: Kinase panel (Millipore); assay type: biochemical; details: 1 µM, ATP at Km
T13 construct: purchased Millipore (KinaseProfiler) kinase panel

RSK4 = target: T14, RSK4 (Homo sapiens, UniProt Q9UK32); test: Kinase panel (Millipore); assay type: biochemical; details: 1 µM, ATP at Km
T14 construct: purchased Millipore (KinaseProfiler) kinase panel

PI3K GAMMA = PI3K GAMMA (Homo sapiens, UniProt P48736); test: Kinase panel (Millipore); assay type: biochemical; details: 1 µM, ATP at Km
SGK2 = target: T15, SGK2 (Homo sapiens, UniProt Q9HBY8); test: Kinase panel (Millipore); assay type: biochemical; details: 1 µM, ATP at Km
T15 construct: purchased Millipore (KinaseProfiler) kinase panel

TAO2 = target: T16, TAO2 (Homo sapiens, UniProt Q9UL54); test: Kinase panel (Millipore); assay type: biochemical; details: 1 µM, ATP at Km
T16 construct: purchased Millipore (KinaseProfiler) kinase panel
T16 sequence (Q9UL54 whole entry): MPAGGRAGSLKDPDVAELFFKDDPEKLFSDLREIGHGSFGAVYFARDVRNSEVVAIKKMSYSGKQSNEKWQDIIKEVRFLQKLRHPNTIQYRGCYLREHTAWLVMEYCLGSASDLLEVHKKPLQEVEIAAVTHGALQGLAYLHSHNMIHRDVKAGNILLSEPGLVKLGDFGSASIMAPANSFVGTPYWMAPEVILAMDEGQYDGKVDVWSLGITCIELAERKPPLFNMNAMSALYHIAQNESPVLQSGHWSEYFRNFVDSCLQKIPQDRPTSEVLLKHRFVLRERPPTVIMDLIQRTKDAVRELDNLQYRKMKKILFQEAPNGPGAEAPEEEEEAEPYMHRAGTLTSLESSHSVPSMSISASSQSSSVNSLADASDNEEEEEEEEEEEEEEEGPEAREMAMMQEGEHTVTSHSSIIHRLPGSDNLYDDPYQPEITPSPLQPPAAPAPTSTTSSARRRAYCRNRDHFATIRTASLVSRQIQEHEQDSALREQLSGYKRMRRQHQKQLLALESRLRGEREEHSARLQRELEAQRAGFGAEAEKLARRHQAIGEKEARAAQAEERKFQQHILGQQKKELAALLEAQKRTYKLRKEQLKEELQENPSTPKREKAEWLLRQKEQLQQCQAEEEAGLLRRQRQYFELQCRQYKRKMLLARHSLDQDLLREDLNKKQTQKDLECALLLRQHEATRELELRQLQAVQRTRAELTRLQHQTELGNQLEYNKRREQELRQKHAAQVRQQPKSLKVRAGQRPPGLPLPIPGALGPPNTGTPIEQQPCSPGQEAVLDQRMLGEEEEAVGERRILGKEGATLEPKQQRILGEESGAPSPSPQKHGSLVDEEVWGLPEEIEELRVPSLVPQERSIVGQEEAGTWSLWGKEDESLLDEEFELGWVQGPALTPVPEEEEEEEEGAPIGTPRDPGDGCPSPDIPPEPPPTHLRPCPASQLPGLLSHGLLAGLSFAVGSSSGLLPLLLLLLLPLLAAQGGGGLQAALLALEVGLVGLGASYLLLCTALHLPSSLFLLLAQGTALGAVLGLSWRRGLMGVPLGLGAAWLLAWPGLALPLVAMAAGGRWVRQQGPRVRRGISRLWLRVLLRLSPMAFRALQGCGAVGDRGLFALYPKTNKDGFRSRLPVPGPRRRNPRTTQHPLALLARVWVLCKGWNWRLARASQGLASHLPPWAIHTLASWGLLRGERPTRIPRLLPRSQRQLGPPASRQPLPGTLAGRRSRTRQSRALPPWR

PKBBETA = PKBBETA (Homo sapiens, UniProt P31751); test: Kinase panel (Millipore); assay type: biochemical; details: 1 µM, ATP at Km
SRPK1 = target: T17, SRPK1 (Homo sapiens, UniProt Q96SB4); test: Kinase panel (Millipore); assay type: biochemical; details: 1 µM, ATP at Km
T17 construct: purchased Millipore (KinaseProfiler) kinase panel

SRC(1-530) = SRC(1-530) (Homo sapiens, UniProt P12931); test: Kinase panel (Millipore); assay type: biochemical; details: 1 µM, ATP at Km
TRKA = target: T18, TRKA (Homo sapiens, UniProt P04629); test: Kinase panel (Millipore); assay type: biochemical; details: 1 µM, ATP at Km
T18 construct: purchased Millipore (KinaseProfiler) kinase panel

PKCMU = target: T19, PKCMU (Homo sapiens, UniProt Q15139); test: Kinase panel (Millipore); assay type: biochemical; details: 1 µM, ATP at Km
T19 construct: purchased Millipore (KinaseProfiler) kinase panel

PRKX = target: T20, PRKX (Homo sapiens, UniProt P51817); test: Kinase panel (Millipore); assay type: biochemical; details: 1 µM, ATP at Km
T20 construct: purchased Millipore (KinaseProfiler) kinase panel

PTK5 = target: T21, PTK5 (Homo sapiens, UniProt P42685); test: Kinase panel (Millipore); assay type: biochemical; details: 1 µM, ATP at Km
T21 construct: purchased Millipore (KinaseProfiler) kinase panel

RON = target: T22, RON (Homo sapiens, UniProt Q04912); test: Kinase panel (Millipore); assay type: biochemical; details: 1 µM, ATP at Km
T22 construct: purchased Millipore (KinaseProfiler) kinase panel

ROS = target: T23, ROS (Homo sapiens, UniProt P08922); test: Kinase panel (Millipore); assay type: biochemical; details: 1 µM, ATP at Km
T23 construct: purchased Millipore (KinaseProfiler) kinase panel

CKIT(D816V) = CKIT(D816V) (Homo sapiens, UniProt P10721, D816V); details: 1 µM, ATP at Km
FLT3(D835Y) = FLT3(D835Y) (Homo sapiens, UniProt P36888, D835Y); details: 1 µM, ATP at Km
CK2ALPHA2 = CK2ALPHA2 (Homo sapiens, UniProt P19784); details: 1 µM, ATP at Km
Chain of CK2ALPHA2 (P19784 whole entry): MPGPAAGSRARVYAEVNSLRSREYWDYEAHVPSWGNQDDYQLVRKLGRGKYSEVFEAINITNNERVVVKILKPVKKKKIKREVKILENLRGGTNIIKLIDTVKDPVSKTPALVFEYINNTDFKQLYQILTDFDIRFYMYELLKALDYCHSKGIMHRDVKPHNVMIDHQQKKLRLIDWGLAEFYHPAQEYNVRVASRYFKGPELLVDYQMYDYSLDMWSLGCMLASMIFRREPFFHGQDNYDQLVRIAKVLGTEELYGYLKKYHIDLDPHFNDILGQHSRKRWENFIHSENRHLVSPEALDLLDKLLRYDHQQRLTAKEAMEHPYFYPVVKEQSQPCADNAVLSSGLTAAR

SRC(T341M) = SRC(T341M) (Homo sapiens, UniProt P12931, T341M); details: 1 µM, ATP at Km
TIE2(Y897S) = TIE2(Y897S) (Homo sapiens, UniProt Q02763, Y897S); details: 1 µM, ATP at Km
Chain of TIE2(Y897S) (Q02763 771-1124 Y897S limits assumed): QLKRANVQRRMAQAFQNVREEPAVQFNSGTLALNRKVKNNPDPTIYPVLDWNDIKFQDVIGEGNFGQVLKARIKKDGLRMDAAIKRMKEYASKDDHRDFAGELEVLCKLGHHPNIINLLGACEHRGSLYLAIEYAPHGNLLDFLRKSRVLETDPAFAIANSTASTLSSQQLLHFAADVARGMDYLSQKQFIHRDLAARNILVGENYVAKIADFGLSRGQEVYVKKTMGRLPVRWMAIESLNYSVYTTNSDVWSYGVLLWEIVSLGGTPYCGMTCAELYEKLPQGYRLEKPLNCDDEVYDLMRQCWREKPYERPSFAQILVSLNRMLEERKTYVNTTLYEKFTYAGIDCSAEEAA

PI3 KINASE (H1047R/P85A) = PI3 KINASE (H1047R/P85A) (Homo sapiens, UniProt P42336, H1047R); details: 1 µM, ATP at Km

T1 sequence (P50052 whole entry): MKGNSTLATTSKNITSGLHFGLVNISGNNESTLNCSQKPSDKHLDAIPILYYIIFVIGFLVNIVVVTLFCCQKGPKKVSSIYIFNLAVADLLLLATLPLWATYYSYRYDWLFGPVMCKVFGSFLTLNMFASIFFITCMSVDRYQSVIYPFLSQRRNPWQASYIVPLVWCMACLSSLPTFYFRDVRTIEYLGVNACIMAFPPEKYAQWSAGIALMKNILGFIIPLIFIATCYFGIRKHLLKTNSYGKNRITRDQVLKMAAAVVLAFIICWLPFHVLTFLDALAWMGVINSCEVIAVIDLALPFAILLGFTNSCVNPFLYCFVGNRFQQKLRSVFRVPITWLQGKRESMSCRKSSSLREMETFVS

Cn1ncc2cc(-c3cnc(N)c(Cl)c3N3CCC4(CCNC4=O)CC3)ccc21 [Compound 109, 8-(2-Amino-3-chloro-5-(1-methyl-1H-indazol-5-yl)pyridin-4-yl)-2,8-diazaspiro[4.5]decan-1-one]
inhibition at 10 µM (AT2 (h)): 6%
% effect (ALK): 4%
% effect (LIMK1): -13%
% effect (ASK1): 17%
% effect (LOK): 11%
% effect (BMX): -6%
% effect (FGFR2): 4%
% effect (FGR): -2%
% effect (FLT1): -8%
% effect (MLCK): 3%
% effect (FYN): 23%
% effect (HCK): -4%
% effect (CK1(Y)): -1%
% effect (MST1): 4%
% effect (HIPK2): 2%
% effect (MST2): -11%
% effect (IKKBETA): -2%
% effect (IRR): 5%
% effect (IRAK1): 15%
% effect (P70S6K): -1%
% effect (PAK2): -10%
% effect (PAK4): -1%
% effect (PAK5): -11%
% effect (FAK): 6%
% effect (MER): 11%
% effect (RSK4): -6%
% effect (PI3K GAMMA): 7%
% effect (SGK2): -3%
% effect (TAO2): 2%
% effect (PKBBETA): -21%
% effect (SRPK1): -8%
% effect (SRC(1-530)): 0%
% effect (TRKA): 2%
% effect (PKCMU): 5%
% effect (PRKX): -9%
% effect (PTK5): -12%
% effect (RON): -1%
% effect (ROS): 8%
% effect (CKIT(D816V)): -7%
% effect (FLT3(D835Y)): 21%
% effect (CK2ALPHA2): -13%
% effect (SRC(T341M)): -8%
% effect (TIE2(Y897S)): 0%
% effect (PI3 KINASE (H1047R/P85A)): 7%

— publication PMC5362750, “Discovery of Potent, Selective, and Orally Bioavailable Small-Molecule Modulators of the Mediator Complex-Associated Kinases CDK8 and CDK19” (Journal of Medicinal Chemistry, 2016)
